Measurements: patent US20260174763A1, “PREPARATION METHOD AND USE OF A NOVEL TAXANE-BASED COMPOUND” (Jiangsu Jibeier Pharmaceutical Co., Ltd., priority 2023, published 2026)

Legend:
[1] = system: human bladder cancer/urothelial carcinoma cell line BIU-87; test: CTG proliferation inhibition, BIU-87; type: cell-based; conditions: 72 h incubation, read-out: IC50 (nM) of the test compounds for various tumor cell lines
Description: (§1) Testing the inhibition effect of the compounds of Formula (I) and Formula II on the proliferation of various tumor cell lines by CTG method:
(§2) The CellTiter-Glo Luminescent Cell Viability Assay (CTG) method was used to test the inhibition effect of the compounds of Formula (I) and Formula II on the proliferation of various tumor cell lines, and IC50 value was calculated. The tumor cell lines included: human pancreatic cancer cell lines: SW1990, PANC-1, HPAF-II; human gastric cancer cell lines: NCI-N87, MGC-803; human esophageal cancer cell lines: KYSE-150, KYSE-410; human head-and-neck cancer cell lines: C666-1, Fadu; human breast cancer cell line: MDA-MB-231; human lung cancer cell line: A549; human adrenocortical carcinoma cell line: SW-13; human bladder cancer/urothelial carcinoma cell line: BIU-87, totally 13 tumor cell lines.
(§3) Experimental method: cells in logarithmic growth phase were obtained. The cell suspension was added to each well of a 96-well plate, placed in an incubator at 37° C. for overnight incubation. Complete mediums corresponding to each of the tumor cell lines were used to dilute the test compounds of […] and Formula II. The drugs were subjected to gradient dilution according to the following table. Culture medium containing the drug to be tested was added to the 96-well plate. Replicates were provided or each concentration in three wells; and a negative control well not containing the drug to be tested was provided. The 96-well plate was placed in incubator for incubation for 72 h and then added thereto a CTG reagent, with a blank control well provided. The substances in the wells were mixed evenly, and the cells were lysed and incubated at room temperature for 10 min. The […] signal value (Lum) was measured with a microplate reader.
(§4) Data processing and analysis: The software GraphPad Prism 8.0 was used to process the data graphically, calculate IC50, perform four-parameter non-linear regression analysis on the data, and map the corresponding dose-response curve. The equation for calculating cell viability is as below: […]

[2] = system: human pancreatic cancer cell line HPAF-II; test: CTG proliferation inhibition, HPAF-II; type: cell-based; conditions: 72 h incubation, read-out: IC50 (nM) of the test compounds for various tumor cell lines
Description: as §1, §2, §3, §4

[3] = system: human gastric cancer cell line MGC-803; test: CTG proliferation inhibition, MGC-803; type: cell-based; conditions: 72 h incubation, read-out: IC50 (nM) of the test compounds for various tumor cell lines
Description: as §1, §2, §3, §4

[4] = system: human lung cancer cell line A549; test: CTG proliferation inhibition, A549; type: cell-based; conditions: 72 h incubation, read-out: IC50 (nM) of the test compounds for various tumor cell lines
Description: as §1, §2, §3, §4

[5] = system: human esophageal cancer cell line KYSE-410; test: CTG proliferation inhibition, KYSE-410; type: cell-based; conditions: 72 h incubation, read-out: IC50 (nM) of the test compounds for various tumor cell lines
Description: as §1, §2, §3, §4

[6] = system: human breast cancer cell line MDA-MB-231; test: CTG proliferation inhibition, MDA-MB-231; type: cell-based; conditions: 72 h incubation, read-out: IC50 (nM) of the test compounds for various tumor cell lines
Description: as §1, §2, §3, §4

[7] = system: human adrenocortical carcinoma cell line SW-13; test: CTG proliferation inhibition, SW-13; type: cell-based; conditions: 72 h incubation, read-out: IC50 (nM) of the test compounds for various tumor cell lines
Description: as §1, §2, §3, §4

[8] = system: human esophageal cancer cell line KYSE-150; test: CTG proliferation inhibition, KYSE-150; type: cell-based; conditions: 72 h incubation, read-out: IC50 (nM) of the test compounds for various tumor cell lines
Description: as §1, §2, §3, §4

[9] = system: human head-and-neck cancer cell line C666-1; test: CTG proliferation inhibition, C666-1; type: cell-based; conditions: 72 h incubation, read-out: IC50 (nM) of the test compounds for various tumor cell lines
Description: as §1, §2, §3, §4

[10] = system: human pancreatic cancer cell line PANC-1; test: CTG proliferation inhibition, PANC-1; type: cell-based; conditions: 72 h incubation, read-out: IC50 (nM) of the test compounds for various tumor cell lines
Description: as §1, §2, §3, §4

[11] = system: human gastric cancer cell line NCI-N87; test: CTG proliferation inhibition, NCI-N87; type: cell-based; conditions: 72 h incubation, read-out: IC50 (nM) of the test compounds for various tumor cell lines
Description: as §1, §2, §3, §4

[12] = system: human head-and-neck cancer cell line Fadu; test: CTG proliferation inhibition, Fadu; type: cell-based; conditions: 72 h incubation, read-out: IC50 (nM) of the test compounds for various tumor cell lines
Description: as §1, §2, §3, §4

[13] = system: human pancreatic cancer cell line SW1990; test: CTG proliferation inhibition, SW1990; type: cell-based; conditions: 72 h incubation, read-out: IC50 (nM) of the test compounds for various tumor cell lines
Description: as §1, §2, §3, §4

tumor cell = conditions: compared with paclitaxel; cited from earlier work
advanced ovarian cancer = conditions: clinical outcome; cited from earlier work
[14] = system: advanced non-small cell lung cancer; conditions: clinical outcome; cited from earlier work
advanced breast cancer = conditions: clinical outcome; cited from earlier work

Structure (SMILES)	IC50 [1] [nM]	IC50 [2] [nM]	IC50 [3] [nM]	IC50 [4] [nM]	IC50 [5] [nM]	IC50 [6] [nM]	IC50 [7] [nM]	IC50 [8] [nM]	IC50 [9] [nM]	IC50 [10] [nM]	IC50 [11] [nM]	IC50 [12] [nM]	IC50 [13] [nM]	ability to inhibit cell division relative to paclitaxel (tumor cell)	tumor cell proliferation inhibition rate relative to paclitaxel (tumor cell) [times]	effective rate (advanced ovarian cancer) [%]	effective rate [14] [%]	effective rate (advanced breast cancer) [%]
CC(=O)OC12COC1CC(O)C1(C)C(=O)C(OC(=O)Nc3ccc(C(C)O)cc3)C3=C(C)C(OC(=O)C(O)C(NC(=O)OC(C)(C)C)c4ccccc4)CC(O)(C(OC(=O)c4ccccc4)C21)C3(C)C (centres unmarked) [Compound I-1]	12.1	4.45	0.187	41.9	1.26	5.46	1.57	1.99	16	2.27	28.2	2.64	6.34					
CC(=O)OC12COC1CC(O)C1(C)C(=O)C(OC(=O)Nc3ccc(C(C)O)cc3)C3=C(C)C(OC(=O)C(O)C(NC(=O)OC(C)(C)C)c4ccccc4)CC(O)(C(OC(=O)c4ccccc4)C21)C3(C)C (centres unmarked) [Compound I-2]	29.1	8.65	3.4	11.7	0.101	0.042	6.12	1.75	7.34	2.89	7.46	4.15	3.1					
CC(=O)OC12COC1CC(O)C1(C)C(=O)C(OC(=O)Nc3ccc(C(C)O)cc3)C3=C(C)C(OC(=O)C(O)C(NC(=O)OC(C)(C)C)c4ccccc4)CC(O)(C(OC(=O)c4ccccc4)C21)C3(C)C (centres unmarked) [Compound I-3]	0.319	2.22	2.08	25.3	0.084	6.61	2.69	0.376	10.5	0.814	8.3	0.657	0.916					
CC(=O)OC12COC1CC(O)C1(C)C(=O)C(OC(=O)Nc3ccc(C(C)O)cc3)C3=C(C)C(OC(=O)C(O)C(NC(=O)OC(C)(C)C)c4ccccc4)CC(O)(C(OC(=O)c4ccccc4)C21)C3(C)C (centres unmarked) [Compound I-4]	17.5	2.18	4.99	12.4	0.097	12.6	9.12	0.726	12.1	0.549	18.8	8.62	6.4					
CC(=O)OC12COC1CC(O)C1(C)C(=O)C(OC(=O)Nc3ccc(C(C)O)cc3)C3=C(C)C(OC(=O)C(O)C(NC(=O)OC(C)(C)C)c4ccccc4)CC(O)(C(OC(=O)c4ccccc4)C21)C3(C)C (centres unmarked) [Compound I-5]	17.7	10.7	0.635	5.64	0.016	2.91	4.75	0.808	3.39	1.41	11.4	4.76	12.7					
CC(=O)OC12COC1CC(O)C1(C)C(=O)C(OC(=O)Nc3ccc(C(C)O)cc3)C3=C(C)C(OC(=O)C(O)C(NC(=O)OC(C)(C)C)c4ccccc4)CC(O)(C(OC(=O)c4ccccc4)C21)C3(C)C (centres unmarked) [Compound I-6]	30.1	11	3.49	18.9	0.02	11.7	8.48	0.123	3.03	0.878	12.9	12.8	12.2					
CC(=O)OC12COC1CC(O)C1(C)C(=O)C(OC(=O)Nc3ccc(C(C)O)cc3)C3=C(C)C(OC(=O)C(O)C(NC(=O)OC(C)(C)C)c4ccccc4)CC(O)(C(OC(=O)c4ccccc4)C21)C3(C)C (centres unmarked) [Compound I-7]	10.2	3.11	4.93	60.2	0.1	13	7.36	0.972	9.19	0.888	10.9	6.47	6.73					
CC(=O)OC12COC1CC(O)C1(C)C(=O)C(OC(=O)Nc3ccc(C(C)O)cc3)C3=C(C)C(OC(=O)C(O)C(NC(=O)OC(C)(C)C)c4ccccc4)CC(O)(C(OC(=O)c4ccccc4)C21)C3(C)C (centres unmarked) [Compound I-8]	12.7	9.05	0.844	27.1	0.032	6.57	10.1	1.7	10.5	0.007	14.7	9.16	14.2					
CC(=O)OC12COC1CC(O)C1(C)C(=O)C(OC(=O)Nc3ccc(C(C)=O)cc3)C3=C(C)C(OC(=O)C(O)C(NC(=O)OC(C)(C)C)c4ccccc4)CC(O)(C(OC(=O)c4ccccc4)C21)C3(C)C (centres unmarked) [II, reference compound]	30.5	12.6	5.34	60.5	0.113	20.9	12.5	1.9	12.8	3.35	20.8	16.7	15.5					
CC(=O)O[C@@]12CO[C@@H]1C[C@H](O)[C@@]1(C)C(=O)[C@H](O)C3=C(C)[C@@H](OC(=O)[C@H](O)[C@@H](NC(=O)OC(C)(C)C)c4ccccc4)C[C@@](O)([C@@H](OC(=O)c4ccccc4)[C@H]21)C3(C)C [docetaxel, Docetaxel]														twice that of paclitaxel	10	30	31	60
